Source: patent US12428433B2, “Fluorine-containing heterocyclic derivatives with macrocyclic structure and use thereof” (ScinnoHub Pharmaceutical Co., Ltd, priority 2019, dated 2025)

Key:
TRKA(G595R) = TRKA(G595R) (Homo sapiens (Human), UniProt P04629, G595R); experiment: Kinase inhibitory activity (Caliper mobility shift), TRKA(G595R); assay type: biochemical
Method: […] (Shanghai) Co., Ltd. was commissioned to complete the testing example. […] 3.1 A tested compound was accurately weighed and dissolved in 100% DMSO to prepare into a 10 mM solution. […] 3.2.3 A kinase solution of 2.5 times final concentration was prepared with 1×kinase buffer. […] 3.2.5 The reaction plate was shaken and mixed evenly, and then incubated at room temperature for 10 minutes. 3.2.6 Mixed solutions of ATP and kinase substrate 22 of 5 times and 3 times final concentrations were prepared with 1×kinase buffer. 3.2.7 15 μL of mixed solution of ATP and substrate of 5 times or 3 times final concentration was added. 3.2.8 The 384-well plate was centrifuged at 1,000 rpm for 30 seconds, shaken and mixed evenly, and then incubated at room temperature for corresponding time. 3.2.9 The kinase reaction was terminated. 3.2.10 A conversion rate was read by the microplate reader Caliper EZ Reader. Calculation Formula Inhibition rate %=(conversion rate % maximum-conversion rate % sample)/(conversion rate % maximum-conversion rate % minimum)×100 wherein the conversion rate % sample was: a reading number of a conversion rate of a sample; the conversion rate % minimum was: an average value of the negative control well, which represented a reading number of a conversion rate without an enzyme activity well; and the conversion rate % maximum was: an average value of a ratio of the positive control well, which represented a reading number of a conversion rate without a compound inhibition well.

TRKC(G623R) = TRKC(G623R) (Homo sapiens (Human), UniProt Q16288, G623R); experiment: Kinase inhibitory activity (Caliper mobility shift), TRKC(G623R); assay type: biochemical
Sequence of TRKC(G623R) (Q16288 32-839 G623R): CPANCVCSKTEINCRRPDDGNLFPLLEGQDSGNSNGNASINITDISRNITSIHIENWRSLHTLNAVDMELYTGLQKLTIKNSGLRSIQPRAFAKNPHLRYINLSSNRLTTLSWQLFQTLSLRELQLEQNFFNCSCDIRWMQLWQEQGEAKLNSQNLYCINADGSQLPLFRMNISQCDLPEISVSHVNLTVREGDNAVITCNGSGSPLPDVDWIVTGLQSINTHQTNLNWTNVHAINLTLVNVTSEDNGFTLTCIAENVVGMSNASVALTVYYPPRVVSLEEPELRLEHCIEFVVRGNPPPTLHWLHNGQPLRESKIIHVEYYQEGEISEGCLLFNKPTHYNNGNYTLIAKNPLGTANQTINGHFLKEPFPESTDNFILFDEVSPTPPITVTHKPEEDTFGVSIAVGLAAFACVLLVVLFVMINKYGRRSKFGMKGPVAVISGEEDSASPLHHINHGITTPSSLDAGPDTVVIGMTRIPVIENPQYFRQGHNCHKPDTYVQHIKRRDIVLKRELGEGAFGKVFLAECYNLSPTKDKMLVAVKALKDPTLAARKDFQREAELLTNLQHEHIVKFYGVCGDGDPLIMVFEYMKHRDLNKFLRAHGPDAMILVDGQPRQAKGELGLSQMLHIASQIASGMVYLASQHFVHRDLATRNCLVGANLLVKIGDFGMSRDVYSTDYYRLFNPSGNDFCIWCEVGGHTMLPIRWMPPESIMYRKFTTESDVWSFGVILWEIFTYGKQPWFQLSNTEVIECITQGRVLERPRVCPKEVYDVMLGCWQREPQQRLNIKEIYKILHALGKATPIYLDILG
Method: Sundia Meditech (Shanghai) Co., Ltd. was commissioned to complete the testing example.
3.1 A tested compound was accurately weighed and dissolved in 100% DMSO to prepare into a 10 mM solution.
250 nL of the compound of 100 times final concentration was transferred to a reaction plate OptiPlate-384F by a dispenser Echo 550.
3.2.3 A kinase solution of 2.5 times final concentration was prepared with 1×kinase buffer.
3.2.4 10 μL of kinase solution of 2.5 times final concentration was added into a compound well and a positive control well respectively; and 10 μL of 1×kinase buffer was added into a negative control well.
3.2.5 The reaction plate was shaken and mixed evenly, and then incubated at room temperature for 10 minutes.
3.2.6 Mixed solutions of ATP and kinase substrate 22 of 5 times and 3 times final concentrations were prepared with 1×kinase buffer.
3.2.7 15 μL of mixed solution of ATP and substrate of 5 times or 3 times final concentration was added.
3.2.8 The 384-well plate was centrifuged at 1,000 rpm for 30 seconds, shaken and mixed evenly, and then incubated at room temperature for corresponding time.
3.2.9 The kinase reaction was terminated.
3.2.10 A conversion rate was read by the microplate reader Caliper EZ Reader.
Calculation Formula Inhibition rate %=(conversion rate % maximum−conversion rate % sample)/(conversion rate % maximum−conversion rate % minimum)×100
wherein the conversion rate % sample was: a reading number of a conversion rate of a sample; the conversion rate % minimum was: an average value of the negative control well, which represented a reading number of a conversion rate without an enzyme activity well; and the conversion rate % maximum was: an average value of a ratio of the positive control well, which represented a reading number of a conversion rate without a compound inhibition well.
Fitting of dose-effect curve: a log value of concentration was used as an X axis, a percentage inhibition rate was used as a Y axis, and the dose-effect curve was fitted by a log (inhibitor) vs. response-variable slope of the analysis software GraphPad Prism 5 (four-parameter model fitting), so as to obtain an IC50 value of each compound on enzyme activity.

Sequence of TRKA(G595R) (P04629 33-796 G595R): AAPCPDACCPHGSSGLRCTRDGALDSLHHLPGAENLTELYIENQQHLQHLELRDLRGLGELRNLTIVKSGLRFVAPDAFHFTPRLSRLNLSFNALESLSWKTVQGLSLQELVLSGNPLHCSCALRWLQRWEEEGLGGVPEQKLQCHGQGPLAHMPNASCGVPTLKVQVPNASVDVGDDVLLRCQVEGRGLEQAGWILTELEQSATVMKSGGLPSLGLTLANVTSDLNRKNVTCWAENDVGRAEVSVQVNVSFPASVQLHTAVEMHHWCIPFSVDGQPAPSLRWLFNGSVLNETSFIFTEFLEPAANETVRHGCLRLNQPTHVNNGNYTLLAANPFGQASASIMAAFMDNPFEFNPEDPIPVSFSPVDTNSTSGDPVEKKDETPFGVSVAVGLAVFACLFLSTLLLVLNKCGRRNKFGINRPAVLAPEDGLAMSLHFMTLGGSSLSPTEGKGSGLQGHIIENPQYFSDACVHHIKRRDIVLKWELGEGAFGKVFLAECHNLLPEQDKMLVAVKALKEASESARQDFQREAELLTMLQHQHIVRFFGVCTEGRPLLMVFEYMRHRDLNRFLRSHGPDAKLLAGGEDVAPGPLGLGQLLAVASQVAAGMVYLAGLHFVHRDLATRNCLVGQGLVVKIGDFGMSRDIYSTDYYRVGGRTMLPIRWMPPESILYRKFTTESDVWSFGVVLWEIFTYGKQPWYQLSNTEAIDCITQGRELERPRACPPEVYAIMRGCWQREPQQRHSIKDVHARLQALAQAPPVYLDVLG

| IC50 (TRKA(G595R)) | IC50 (TRKC(G623R)) | SMILES |
| --- | --- | --- |
| 0.72 nM | 1.7 nM | O=C1N[C@H]2C[C@H](C2)Oc2ncc(F)cc2[C@H]2CCCN2c2ccn3ncc1c3n2 (stereo in doubt) [Positive control 1, reference compound] |
| 0.89 nM | 1.5 nM | C[C@H]1Nc2nc3c(cnn3cc2F)C(=O)N[C@H]2C[C@H](C2)Oc2ncc(F)cc21 [Example 3, (3^1S,3^3S,6^3E,6^4E,8R)-1^5,6^6-difluoro-8-methyl-2-oxo-4,7-diaza-6(3,5)-pyrazolo[1,5-a]pyrimidine-1(2,3)-pyridine-3(1,3)-cyclobutylcyclooctane-5-one] |
| 0.97 nM | 1.4 nM | C[C@H]1Nc2ccn3ncc(c3n2)C(=O)N[C@H]2C[C@H](C2)Oc2ncc(F)cc21 [Positive control 2, reference compound] |

| SMILES | IC50 (TRKA(G595R)) | IC50 (TRKC(G623R)) |
| --- | --- | --- |
| O=C1N[C@H]2C[C@H](C2)Oc2ncc(F)cc2[C@H]2CCCN2c2nc3c1cnn3cc2F [Example 2, ((1^3E,1^4E,2^2R,5^1S,5^3S)-1^6,3^5-difluoro-4-oxa-6-aza-1(5,3)-pyrazolo[1,5-a]pyrimidine-3(3,2)-pyridine-2(1,2)-pyrrolidine-5(1,3)-cyclobutancycloheptan-7-one] | – | 1.8 nM |
